Experimental findings from ChEMBL document CHEMBL1208744, “Petiolins J-M, prenylated acylphloroglucinols from Hypericum pseudopetiolatum var. kiusianum” (Bioorg Med Chem Lett, 2010) are described below.

The term IC50 denotes the concentration that inhibits the measured activity by half. High values mean lower potency, low ones higher potency. As a reminder, the MIC is the smallest concentration in the dilution series that meets the test's criterion for growth inhibition. A high value points to a need for much substance.

The test system of one assay is L1210. Put plainly: Cytotoxicity against mouse L1210 cells. The format is functional, cell-based.
The test system of the next assay is KB. Put plainly: Cytotoxicity against human KB cells. Format: functional. The following applies: read-out: MIC.
For another assay, the system named is Micrococcus luteus. Briefly: Antimicrobial activity against Micrococcus luteus. Format: functional.
In another assay the test system is Cryptococcus neoformans. Put plainly: Antimicrobial activity against Cryptococcus neoformans. The format is functional.
For assay [1], the system named is Trichophyton mentagrophytes. Briefly: Antimicrobial activity against Trichophyton mentagrophytes. The format is functional.

Values after ≈ are worked out from the molar mass of the structure shown. Where only a bound is given, the exact number is not on record here.

In turn, `Cc1c(O)c(C(=O)C(C)C)c2c3c1OC(C)(C)[C@@H]1CC[C@@](C)(C[C@@H]31)O2` [PETIOLIN K] displayed a concentration for half-maximal inhibition (IC50) in the assay with L1210 above 10 µg/mL. Also, the cytotoxic concentration in the assay on KB is above 10 µg/mL.

As to `CC(C)=CCC[C@]1(C)Oc2c(c(O)c(C)c(O)c2C(=O)C(C)C)C[C@H]1O` [PETIOLIN J], the minimal inhibitory concentration (MIC) against Micrococcus luteus amounted to 8 µg/mL (≈ 22.1 µM); in the assay with Cryptococcus neoformans it was 16 µg/mL (≈ 44.1 µM); in assay [1], 16 µg/mL (≈ 44.1 µM). Besides, the IC50 in the assay on L1210 is above 10 µg/mL. Also, the cytotoxic concentration in the assay with KB is above 10 µg/mL.

For `CCC(C)C(=O)C1=C2O[C@@H]([C@@](C)(O)CCC=C(C)C)C[C@]2(CC=C(C)C)C(=O)C(C)(C)C1=O` (stereo partly specified) [PETIOLIN L], the IC50 in the assay on L1210 was above 10 µg/mL. For the same compound, in the assay with KB, the cytotoxic concentration is above 10 µg/mL.

In the case of `CC(C)=CCC[C@](C)(O)[C@H]1C[C@@]2(CC=C(C)C)C(=O)C(C)(C)C(=O)C(C(=O)C(C)C)=C2O1` [PETIOLIN M], in the assay with L1210, the concentration for half-maximal inhibition (IC50) was above 10 µg/mL. For the same compound, the cytotoxic concentration with KB was above 10 µg/mL.
